# Patent publication US8071645B2, “Systems and methods for treating human inflammatory and proliferative diseases and wounds, with fatty acid metabolism inhibitors and/or glycolytic inhibitors” (The Regents of the University of Colorado, priority 2003, dated 2011)
# How the values were obtained:
# Format in all cases: cell-based
# [1] = test system: cell-surface Fas on drug resistant L1210/DDP cells; assay: cell-surface Fas expression on L1210/DDP cells by flow cytometry
# Description: (§1) Flow Cytometry. Cells were harvested, counted, and resuspended at 10^6 cells/100 μl of PBS containing 2.5% fetal calf serum in preparation for flow cytometric analysis. Cells were stained for intracellular H202 using 6-carboxy-2′,7′-dichlorodihydrofluorescein diacetate (DCF-DA, Molecular Probes, Eugene, Oreg.). Briefly, cells were incubated at 37° with 1 mM DCF-DA for 20 minutes, washed twice in PBS containing 2.5% fetal calf serum and analyzed flow cytometrically. Mitochondrial membrane potential was assessed using Mitotracker Red (CM-H2XROS, Molecular Probes, Eugene, Oreg.). […] The cells were incubated at 37° for 20 minutes, washed twice in PBS containing 2.5% fetal calf serum and analyzed flow cytometrically. Data were acquired on a Coulter Elite Epics or Excel flow cytometer (Coulter, Hialeah, Fla.) and analyzed with CellQuest software, (Becton Dickinson, San Jose, Calif.). […] Each sample population was classified for cell size (forward scatter) and complexity (side scatter), gated on a population of interest and evaluated using 5,000 cells. […]
# Drug sensitive L1210 cells and drug resistant L1210/DDP cells were cultured with etomoxir for 24 hours (Tx indicates treatment with etomoxir). The level of cell-surface Fas was determined using fluorochrome conjugated anti-Fas antibodies and flow cytometry. The Fas levels are measured relative to a control for staining artifacts. […]
# [2] = test system: cell surface UCP2 on A-204 human rhabdomyosarcoma cells; assay: cell surface UCP2 expression on A-204 cells by flow cytometry; conditions: 24, 48, & 72 hours, FIG. 26
# Description: Cell Surface Staining. Non-permeabilized cells were stained with antibodies to the cell surface receptors Fas (CD95) (Pharmingen) or with antibodies to uncoupling proteins (anti-UCP2 antibody) (Alpha Diagnostic International). Antibodies for both the isotype control and actual stain were added to the cell suspension, mixed, and then placed on ice for and incubation of 25 minutes in the dark. Subsequently the cells were centrifuged at 300×g for 5 minutes and the supernatant removed. The cells were washed one time with 100 μL of PBS/2.5% FBS and then transferred into flow cytometric tubes containing 500 μL of PBS/2.5% FBS for analysis.
# A204 human rhabdomyosarcoma cells were cultured at a concentration of 0.5 to 1 million cells per ml. Cells were untreated or treated with etomoxir at concentrations indicated in FIG. 24 for 24, 48, & 72 hours. Cells were harvested and analyzed by flow cytometry. Dot plots are shown in FIG. 24 as functions of live versus dead cells. […] Five thousand cells were assessed for forward scatter (FS), as a function of cell size, versus side scatter (SS), as a function of cellular granularity. […]
# Cells were untreated or treated with etomoxir at the concentration indicated in FIG. 26 at the indicated concentration for 24, 48, & 72 hours. Cells were harvested, stained with fluorochrome conjugated with anti-UCP2 antibody and analyzed by flow cytometry.
# L1210 DDP cells = assay: mitochondrial membrane potential (MitoTracker) of L1210 DDP cells; conditions: 24 hours of incubation, FIG. 11
# Description: as §1
# We measured the effects of etomoxir on metabolism by measuring mitochondrial membrane potential with a fluorescent dye (Mitotracker Red, Molecular Probes, Eugene, Oreg.) which fluoresces as a function of mitochondrial potential. […]
compound,measurement,setting,value
"CCOC(=O)C1(CCCCCCOc2ccc(Cl)cc2)CO1 (stereo not shown) [etomoxir, 2-(6-(4-chlorophenoxy)-hexyl)-oxirane-2-carboxylic acid ethyl ester]",cell surface Fas,"[1]; L1210/DDP, cultured with etomoxir for 24 hours, FIG. 7",significant increases
same,cell surface Fas on methotrexate-treated cells,"[1]; L1210 DDP, etomoxir with methotrexate, FIG. 8",promotes increases
same,cell surface UCP2 expression in the live cells,[2],time dependent “fold” increases
same,mitochondrial membrane potential (MitoTracker),L1210 DDP cells,increase
